Assay results from patent US10441562B2, “Aromatic farnesyl compound and application thereof” (INSTITUTE OF MICROBIOLOGY, CHINESE ACADEMY OF SCIENCES, priority 2015, dated 2019).

Key:
α-glucosidase = target: T1, α-glucosidase (Saccharomyces cerevisiae, UniProt P53341); experiment: α-glucosidase inhibitory activity test in vitro; format: biochemical; details: read-out: α-glucosidase inhibitory activity (IC50)
T1 construct: purchased Sigma Corporation G5003

dipeptidyl peptidase-4 = target: T2, dipeptidyl peptidase-4 (Homo sapiens, UniProt P27487); experiment: dipeptidyl peptidase-4 inhibitory activity test in vitro (DPP-4 inhibitor screening kit); format: biochemical
T2 construct: purchased
T2 sequence (P27487 whole entry, species assumed): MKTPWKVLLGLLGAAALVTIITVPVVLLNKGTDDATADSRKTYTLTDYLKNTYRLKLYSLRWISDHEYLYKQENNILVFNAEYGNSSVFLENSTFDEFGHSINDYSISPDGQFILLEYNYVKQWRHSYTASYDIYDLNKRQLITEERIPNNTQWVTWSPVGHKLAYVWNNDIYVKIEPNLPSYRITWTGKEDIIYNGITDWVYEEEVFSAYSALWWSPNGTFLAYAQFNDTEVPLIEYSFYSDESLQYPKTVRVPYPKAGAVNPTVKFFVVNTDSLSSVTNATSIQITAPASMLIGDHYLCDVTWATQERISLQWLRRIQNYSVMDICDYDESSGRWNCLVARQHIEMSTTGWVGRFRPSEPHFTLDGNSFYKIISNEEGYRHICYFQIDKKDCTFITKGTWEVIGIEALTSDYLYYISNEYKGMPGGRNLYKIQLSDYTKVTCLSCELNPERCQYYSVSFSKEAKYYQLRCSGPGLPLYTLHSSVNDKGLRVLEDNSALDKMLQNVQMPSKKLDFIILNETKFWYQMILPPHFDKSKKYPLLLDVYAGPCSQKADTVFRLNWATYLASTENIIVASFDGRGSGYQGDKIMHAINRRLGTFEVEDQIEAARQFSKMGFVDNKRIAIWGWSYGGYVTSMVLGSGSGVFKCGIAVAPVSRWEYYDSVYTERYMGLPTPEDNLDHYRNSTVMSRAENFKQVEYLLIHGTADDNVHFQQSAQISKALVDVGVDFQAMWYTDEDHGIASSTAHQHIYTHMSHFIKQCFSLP
From the text: The above compounds are detected by DPP-4 inhibitor screening kit.

[1] = system: hyperglycemia KK-A^y mice; experiment: blood sugar of hyperglycemia KK-A^y mice; format: in vivo; design: blood sugar: unit not given here; details: for blood sugar at the 1st day, 0: 1st day 0 h; for blood sugar at the 1st day, 30 min: 1st day 30 min after intragastric administration
Method: Materials: accurately weigh the 2 compounds S13 and S28 discussed in example 2, and then add 0.5% CMC-Na to make the solution of 5 mg/ml used for activity test. KK-A^y mice are purchased from Chinese Academy of Medical Sciences & Peking Union Medical College Institute of Animal Studies. Experiments are carried out after adapting to the environment (T=20-24° C., constant humidity: 50-60%, 12 hours light exposure (8:00-20:00), soundproof, free feeding and drinking) for 1 week. Glucometer is purchased from Roche.
Methods: 10 male C57 mice of 6-8 weeks of 20-22 g are used as normal control group (1). Detect the fasting glucose of male KK-A^y mice, which are 6-8 weeks with the weight of 28-32 g, and divide them into different groups according to the blood sugar level and body weight: (2) model control group, (3) which is administered by compound S13 with the dose of 1 mg/kg, (4) which is administered by compound S13 with the dose of 5 mg/kg, (5) which is administered by compound S13 with the dose of 10 mg/kg, (6) which is administered by compound S13 with the dose of 20 mg/kg, (7) which is administered by compound S28 with the dose of 1 mg/kg, (8) which is administered by compound S28 with the dose of 5 mg/kg, (9) which is administered by compound S28 with the dose of 10 mg/kg, (10) which is administered by compound S28 with the dose of 20 mg/kg, (11) which is administered by metformin with the dose of 8 g/kg, (12) which is administered by compound S13 with the dose of 2.5 mg/kg and metformin with the dose of 4 g/kg, (13) which is administered by compound S13 with the dose of 5 mg/kg and metformin with the dose of 4 g/kg, (14) which is administered by compound S28 with the dose of 2.5 mg/kg and metformin with the dose of […], (15) which is administered by compound S28 with the dose of 5 mg/kg and metformin with the dose of […]. Each group has 8 mice, and is administrated successively for 3 weeks. Model control group is given with equal amounts of 0.5% CMC-Na.
1) Effects of drugs on blood sugar: at the first day after administration, the mice are fasted for 2 hours and blood is collected (0 h) to detect the fasting blood sugar. After the compound is given to the mice by intragastric administration for 30 min, blood is collected from tip of tail to detect the blood sugar level.
2) Effects on body weight and blood sugar: the body weight of mice are recorded at the 2th, 5th, 8th, 11th, 14th, 17th, 20th day after administration, and blood is collected from tip of tail to detect the blood sugar level (see table 10).

[2] = 2st day, 20 mg/kg, groups 6, 10
[3] = 5st day, 20 mg/kg, groups 6, 10
[4] = 8st day, 20 mg/kg, groups 6, 10
[5] = 11st day, 10 mg/kg, groups 5, 9
[6] = 11st day, 20 mg/kg, groups 6, 10
[7] = 14st day, 10 mg/kg, groups 5, 9
[8] = 14st day, 20 mg/kg, groups 6, 10
[9] = 17st day, 10 mg/kg, groups 5, 9
[10] = 17st day, 20 mg/kg, groups 6, 10
[11] = 20st day, 10 mg/kg, groups 5, 9
[12] = 20st day, 20 mg/kg, groups 6, 10

T1 sequence (P53341 whole entry): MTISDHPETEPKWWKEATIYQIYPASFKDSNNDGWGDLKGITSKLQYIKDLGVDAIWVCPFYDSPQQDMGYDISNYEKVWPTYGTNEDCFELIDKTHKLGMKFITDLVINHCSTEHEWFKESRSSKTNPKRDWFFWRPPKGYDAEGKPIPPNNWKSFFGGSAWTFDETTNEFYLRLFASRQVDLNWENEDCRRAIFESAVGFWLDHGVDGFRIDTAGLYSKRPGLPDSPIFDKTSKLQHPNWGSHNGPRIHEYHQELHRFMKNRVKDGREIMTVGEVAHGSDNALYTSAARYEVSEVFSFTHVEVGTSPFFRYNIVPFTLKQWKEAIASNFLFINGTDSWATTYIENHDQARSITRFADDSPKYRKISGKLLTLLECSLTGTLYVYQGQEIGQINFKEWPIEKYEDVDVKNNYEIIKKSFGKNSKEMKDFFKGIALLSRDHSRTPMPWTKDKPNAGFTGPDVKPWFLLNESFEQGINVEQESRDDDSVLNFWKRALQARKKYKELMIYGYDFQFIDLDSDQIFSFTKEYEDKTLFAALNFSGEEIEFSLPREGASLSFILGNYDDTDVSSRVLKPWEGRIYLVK

CC(C)=CCC/C(C)=C/CCC1=C[C@@H](c2cc(O)ccc2O)OC1=O [S28, (S,E)-5-(2,5-dihydroxyphenyl)-3-(4,8-dimethylnona-3,7-dien-1-yl)furan-2(5H)-one]
IC50 (α-glucosidase): 0.42 µM | IC50 (dipeptidyl peptidase-4): 6.8 µM | effect on blood sugar of hyperglycemia mice (in words) [1]: significant effects on blood sugar of hyperglycemia mice | blood sugar at the 1st day, 0 ([1]; 1 mg/kg, groups 3, 7): 14.5 | blood sugar at the 1st day, 0 ([1]; 5 mg/kg, groups 4, 8): 14.5 | blood sugar at the 1st day, 0 ([1]; 10 mg/kg, groups 5, 9): 14.2 | blood sugar at the 1st day, 0 ([1]; 20 mg/kg, groups 6, 10): 14.1 | blood sugar at the 1st day, 30 min ([1]; 1 mg/kg, groups 3, 7): 11.3 | blood sugar at the 1st day, 30 min ([1]; 5 mg/kg, groups 4, 8): 9.42 | blood sugar at the 1st day, 30 min ([1]; 10 mg/kg, groups 5, 9): 9.32 | blood sugar at the 1st day, 30 min ([1]; 20 mg/kg, groups 6, 10): 6.24 | blood sugar ([1]; 2st day, 1 mg/kg, groups 3, 7): 17.23 | blood sugar ([1]; 2st day, 5 mg/kg, groups 4, 8): 10.2 | blood sugar ([1]; 2st day, 10 mg/kg, groups 5, 9): 13.12 | blood sugar [1, 2]: 13.25 | blood sugar ([1]; 5st day, 1 mg/kg, groups 3, 7): 14.1 | blood sugar ([1]; 5st day, 5 mg/kg, groups 4, 8): 10.8 | blood sugar ([1]; 5st day, 10 mg/kg, groups 5, 9): 13.5 | blood sugar [1, 3]: 12.5 | blood sugar ([1]; 8st day, 1 mg/kg, groups 3, 7): 13.8 | blood sugar ([1]; 8st day, 5 mg/kg, groups 4, 8): 7.12 | blood sugar ([1]; 8st day, 10 mg/kg, groups 5, 9): 14.1 | blood sugar [1, 4]: 12.8 | blood sugar ([1]; 11st day, 1 mg/kg, groups 3, 7): 15.3 | blood sugar ([1]; 11st day, 5 mg/kg, groups 4, 8): 8.21 | blood sugar [1, 5]: 14.3 | blood sugar [1, 6]: 12.9 | blood sugar ([1]; 14st day, 1 mg/kg, groups 3, 7): 12.4 | blood sugar ([1]; 14st day, 5 mg/kg, groups 4, 8): 8.3 | blood sugar [1, 7]: 13.2 | blood sugar [1, 8]: 12.5 | blood sugar ([1]; 17st day, 1 mg/kg, groups 3, 7): 13.1 | blood sugar ([1]; 17st day, 5 mg/kg, groups 4, 8): 8.2 | blood sugar [1, 9]: 14.5 | blood sugar [1, 10]: 12.5 | blood sugar ([1]; 20st day, 1 mg/kg, groups 3, 7): 12.43 | blood sugar ([1]; 20st day, 5 mg/kg, groups 4, 8): 10.23 | blood sugar [1, 11]: 14.12 | blood sugar [1, 12]: 12.45

CC(C)=CCC/C(C)=C/CCC1=C[C@H](c2cc(O)ccc2O)OC1=O [S13, (R,E)-5-(2,5-dihydroxyphenyl)-3-(4,8-dimethylnona-3,7-dien-1-yl)furan-2(5H)-one]
IC50 (α-glucosidase): 0.27 µM | IC50 (dipeptidyl peptidase-4): 4.5 µM | effect on blood sugar of hyperglycemia mice (in words) [1]: significant effects on blood sugar of hyperglycemia mice | blood sugar at the 1st day, 0 ([1]; 1 mg/kg, groups 3, 7): 14.7 | blood sugar at the 1st day, 0 ([1]; 5 mg/kg, groups 4, 8): 14.8 | blood sugar at the 1st day, 0 ([1]; 10 mg/kg, groups 5, 9): 14.9 | blood sugar at the 1st day, 0 ([1]; 20 mg/kg, groups 6, 10): 14.7 | blood sugar at the 1st day, 30 min ([1]; 1 mg/kg, groups 3, 7): 11.1 | blood sugar at the 1st day, 30 min ([1]; 5 mg/kg, groups 4, 8): 9.2 | blood sugar at the 1st day, 30 min ([1]; 10 mg/kg, groups 5, 9): 9.21 | blood sugar at the 1st day, 30 min ([1]; 20 mg/kg, groups 6, 10): 6.24 | blood sugar ([1]; 2st day, 1 mg/kg, groups 3, 7): 17.3 | blood sugar ([1]; 2st day, 5 mg/kg, groups 4, 8): 10.1 | blood sugar ([1]; 2st day, 10 mg/kg, groups 5, 9): 13.98 | blood sugar [1, 2]: 13.2 | blood sugar ([1]; 5st day, 1 mg/kg, groups 3, 7): 14.1 | blood sugar ([1]; 5st day, 5 mg/kg, groups 4, 8): 10.8 | blood sugar ([1]; 5st day, 10 mg/kg, groups 5, 9): 13.5 | blood sugar [1, 3]: 12.9 | blood sugar ([1]; 8st day, 1 mg/kg, groups 3, 7): 13.8 | blood sugar ([1]; 8st day, 5 mg/kg, groups 4, 8): 7.1 | blood sugar ([1]; 8st day, 10 mg/kg, groups 5, 9): 14.1 | blood sugar [1, 4]: 12.8 | blood sugar ([1]; 11st day, 1 mg/kg, groups 3, 7): 15.1 | blood sugar ([1]; 11st day, 5 mg/kg, groups 4, 8): 8.2 | blood sugar [1, 5]: 14.2 | blood sugar [1, 6]: 12.8 | blood sugar ([1]; 14st day, 1 mg/kg, groups 3, 7): 12.3 | blood sugar ([1]; 14st day, 5 mg/kg, groups 4, 8): 8.2 | blood sugar [1, 7]: 13.9 | blood sugar [1, 8]: 12.5 | blood sugar ([1]; 17st day, 1 mg/kg, groups 3, 7): 13.1 | blood sugar ([1]; 17st day, 5 mg/kg, groups 4, 8): 8.2 | blood sugar [1, 9]: 14.5 | blood sugar [1, 10]: 12.3 | blood sugar ([1]; 20st day, 1 mg/kg, groups 3, 7): 12.8 | blood sugar ([1]; 20st day, 5 mg/kg, groups 4, 8): 10.1 | blood sugar [1, 11]: 14.59 | blood sugar [1, 12]: 12.5
